Reference: publication PMC10354048 (Communications Chemistry, 2023)
≈ marks a conversion by molar mass, not a printed value. Where no end group is shown, it is not given here. [ ]: non-standard residue; d: D form.

Legend:
Assay in all cases: microbe, parasite or virus in culture
S. aureus CW115852 = details: for MIC: Staphylococcus aureus, CW115852, 20 h, read-out: Minimum inhibitory concentration S. aureus CW115852; for Minimum inhibitory concentration S. aureus CW115852: broth microdilution per CSLI guidelines, cation-adjusted Mueller Hinton Broth 2, 5 × 10^5 CFU/mL, 37 °C, 20 h, range 64–0.125 µg/mL, average of three repeat assays
Procedure: (§1) Minimum inhibitory concentrations, determined by broth microdilution, are expressed as an average of three repeat assays. […] [a] MIC values expressed in μg/mL, [b] AC: American Type Culture Collection strain, [c] CW: CANWARD collection clinical isolate strain.33.
(§2) Minimum Inhibitory Concentrations (MIC) were determined for each of the bacteriocins and controls using a broth microdilution method, as per CSLI guidelines for microbial susceptibility testing. The peptides were dissolved in sterile deionized water to prepare the working stocks, with concentrations determined by UV absorbance at 280 nm[56]. Overnight cultures from the strains of interest were incubated with shaking overnight at 37 °C. Cation-adjusted Mueller Hinton Broth 2 (MHB 2) was used for the S. aureus, and S. epidermidis strains and Brain Heart Infusion (BHI) broth was utilized for the E. faecalis and E. faecium strains. The cultures were prepared and diluted to the turbidity of a 0.5 McFarland standard using MHB or BHI fresh media. Increasing concentrations of the leaderless bacteriocins were added to a 96-well polypropylene plate. The range tested for each bacteriocin was 64–0.125 µg/mL. The bacterial culture was further diluted and mixed in a 1:1 ratio with the bacteriocin solution to yield a final concentration in the wells of 5 × 10^5 CFU/mL. […] A 1:1000 dilution of the growth control was prepared in the respective media and plated onto agar (100 μL) to ensure the correct inoculum concentration (5 × 10^5 CFU/mL indicated by ≈ 50 bacterial colonies). The 96-well and agar plates were incubated at 37 °C, and growth was assessed by the formation of a pellet observable with the naked eye after 20 h. […] Each assay was performed in triplicate.
(§3) Materials and instruments […]
(§4) Minimum Inhibitory Concentration (MIC)
(§5) assays were conducted in 96-Well Clear polypropylene corner notch microplates (Corning, #11313595). For the […]

S. aureus CW114125 = details: for MIC: Staphylococcus aureus, CW114125, 20 h, read-out: Minimum inhibitory concentration S. aureus CW114125; for Minimum inhibitory concentration S. aureus CW114125: broth microdilution per CSLI guidelines, cation-adjusted Mueller Hinton Broth 2, 5 × 10^5 CFU/mL, 37 °C, 20 h, range 64–0.125 µg/mL, average of three repeat assays
Procedure: as §1, §2, §3, §4, §5

S. aureus CW113379 = details: for MIC: Staphylococcus aureus, CW113379, 20 h, read-out: Minimum inhibitory concentration S. aureus CW113379; for Minimum inhibitory concentration S. aureus CW113379: broth microdilution per CSLI guidelines, cation-adjusted Mueller Hinton Broth 2, 5 × 10^5 CFU/mL, 37 °C, 20 h, range 64–0.125 µg/mL, average of three repeat assays
Procedure: as §1, §2, §3, §4, §5

S. epidermidis CW131612 = details: for MIC: Staphylococcus epidermidis, CW131612, 20 h, read-out: Minimum inhibitory concentration S. epidermidis CW131612; for Minimum inhibitory concentration S. epidermidis CW131612: broth microdilution per CSLI guidelines, cation-adjusted Mueller Hinton Broth 2, 5 × 10^5 CFU/mL, 37 °C, 20 h, range 64–0.125 µg/mL, average of three repeat assays
Procedure: as §1, §2, §3, §4, §5

E. faecalis CW133003 = details: for Minimum inhibitory concentration E. faecalis CW133003: broth microdilution per CSLI guidelines, Brain Heart Infusion broth, 5 × 10^5 CFU/mL, 37 °C, 20 h, range 64–0.125 µg/mL, average of three repeat assays
Procedure: as §1, §2, §3, §4, §5

S. aureus AC29213 = details: for MIC: Staphylococcus aureus, AC29213, 20 h, read-out: Minimum inhibitory concentration S. aureus AC29213; for Minimum inhibitory concentration S. aureus AC29213: broth microdilution per CSLI guidelines, cation-adjusted Mueller Hinton Broth 2, 5 × 10^5 CFU/mL, 37 °C, 20 h, range 64–0.125 µg/mL, average of three repeat assays
Procedure: as §1, §2, §3, §4, §5

S. epidermidis CW130500 = details: for MIC: Staphylococcus epidermidis, CW130500, 20 h, read-out: Minimum inhibitory concentration S. epidermidis CW130500; for Minimum inhibitory concentration S. epidermidis CW130500: broth microdilution per CSLI guidelines, cation-adjusted Mueller Hinton Broth 2, 5 × 10^5 CFU/mL, 37 °C, 20 h, range 64–0.125 µg/mL, triplicate
Procedure: as §2, §3
(§6) Minimum Inhibitory Concentration (MIC) assays were conducted in 96-Well Clear polypropylene corner notch microplates (Corning, #11313595). For the assay media, cation adjusted Mueller Hinton Broth 2 (Sigma Aldrich, #90922) was used for the S. aureus, and S. epidermidis strains and Brain Heart Infusion broth (BD, #221812) was used for the E. faecalis and E. faecium […]
(§7) used, as well as melittin prepared by automated SPPS. Experimental bacterial strains used were procured from the American Type Culture collection (S. aureus 29213) and the Canadian Antimicrobial Resistance Alliance

E. faecalis CW133346 = details: for Minimum inhibitory concentration E. faecalis CW133346: broth microdilution per CSLI guidelines, Brain Heart Infusion broth, 5 × 10^5 CFU/mL, 37 °C, 20 h, range 64–0.125 µg/mL, triplicate
Procedure: as §2, §3, §6, §7

E. faecium CW130826 = details: for Minimum inhibitory concentration E. faecium CW130826: broth microdilution per CSLI guidelines, Brain Heart Infusion broth, 5 × 10^5 CFU/mL, 37 °C, 20 h, range 64–0.125 µg/mL, triplicate
Procedure: as §2, §3, §6, §7

E. faecium CW131126 = details: for Minimum inhibitory concentration E. faecium CW131126: broth microdilution per CSLI guidelines, Brain Heart Infusion broth, 5 × 10^5 CFU/mL, 37 °C, 20 h, range 64–0.125 µg/mL, triplicate
Procedure: as §2, §3, §6, §7

Molecule	MIC (S. aureus CW115852) [µg/mL]	MIC (S. aureus CW114125) [µg/mL]	MIC (S. aureus CW113379) [µg/mL]	MIC (S. epidermidis CW131612) [µg/mL]	MIC (E. faecalis CW133003; Enterococcus faecalis, CW133003, 20 h, read-out: Minimum inhibitory concentration E. faecalis CW133003) [µg/mL]	MIC (S. aureus AC29213) [µg/mL]	MIC (S. epidermidis CW130500) [µg/mL]	MIC (E. faecalis CW133346; Enterococcus faecalis, CW133346, 20 h, read-out: Minimum inhibitory concentration E. faecalis CW133346) [µg/mL]	MIC (E. faecium CW130826; Enterococcus faecium, CW130826, 20 h, read-out: Minimum inhibitory concentration E. faecium CW130826) [µg/mL]	MIC (E. faecium CW131126; Enterococcus faecium, CW131126, 20 h, read-out: Minimum inhibitory concentration E. faecium CW131126) [µg/mL]	Minimum inhibitory concentration S. aureus CW115852 (S. aureus CW115852) [µg/mL]	Minimum inhibitory concentration S. aureus CW114125 (S. aureus CW114125) [µg/mL]	Minimum inhibitory concentration S. aureus CW113379 (S. aureus CW113379) [µg/mL]	Minimum inhibitory concentration S. epidermidis CW131612 (S. epidermidis CW131612) [µg/mL]	Minimum inhibitory concentration E. faecalis CW133003 (E. faecalis CW133003) [µg/mL]	Minimum inhibitory concentration S. aureus AC29213 (S. aureus AC29213) [µg/mL]	Minimum inhibitory concentration S. epidermidis CW130500 (S. epidermidis CW130500) [µg/mL]	Minimum inhibitory concentration E. faecalis CW133346 (E. faecalis CW133346) [µg/mL]	Minimum inhibitory concentration E. faecium CW130826 (E. faecium CW130826) [µg/mL]	Minimum inhibitory concentration E. faecium CW131126 (E. faecium CW131126) [µg/mL]
CN(C)[C@@H]1C(O)=C(C(N)=O)C(=O)[C@@]2(O)C(O)=C3C(=O)c4c(O)cccc4[C@@](C)(O)[C@H]3C[C@@H]12 [Tetracycline, tetracycline, reference compound]	8 (≈ 18 µM)	32 (≈ 72 µM)	16 (≈ 36 µM)	1 (≈ 2.25 µM)	1 (≈ 2.25 µM)	< 0.125	< 0.125	64 (≈ 144 µM)	0.25 (≈ 0.563 µM)	> 64	–	–	–	–	–	–	–	–	–	–
[dM][dA]G[dF][dL][dK][dV][dV][dQ][dL][dL][dA][dK][dY]G[dS][dK][dA][dV][dQ][dW][dA][dW][dA][dN][dK]G[dK][dI][dL][dD][dW][dL][dN][dA]G[dQ][dA][dI][dD][dW][dV][dV][dS][dK][dI][dK][dQ][dI][dL]G[dI][dK]-NH2 [D-LnqQ, D-lacticin Q (Met^1-Lys^53)]	–	–	–	–	–	–	–	–	–	–	4	8	4	4	2	4	4	2	2	2
MAGFLKVVQLLAKYGSKAVQWAWANKGKILDLLNAGQAIDWVVSKIKQILGIK-NH2 (C-terminus assumed) [L-W32L, L-lacticin Q W32L (Met^1-Lys^53)]	–	–	–	–	–	–	–	–	–	–	32	64	32	16	4	64	16	4	2	4
MSWLNFLKYIAKYGKKAVSAALKYKGKVLEWLNVGPTLEWVWQKLKKIAGL-NH2 [L-W22L, L-aureocin A53 W22L (Met^1-Leu^51)]	–	–	–	–	–	–	–	–	–	–	16	8	16	4	16	2	8	4	2	4
MSLLNFLKYIAKYGKKAVSAAWKYKGKVLEWLNVGPTLEWVWQKLKKIAGL-NH2 [L-W3L, L-aureocin A53 W3L (Met^1-Leu^51)]	–	–	–	–	–	–	–	–	–	–	32	4	4	4	16	4	4	4	2	4
MAGFLKVVQLLAKYGSKAVQWALANKGKILDWLNAGQAIDWVVSKIKQILGIK-NH2 [L-W23L, L-lacticin Q W23L (Met^1-Lys^53)]	–	–	–	–	–	–	–	–	–	–	64	> 64	64	32	4	32	–	8	–	4
CC1(C)S[C@@H]2[C@H](NC(=O)[C@H](N)c3ccccc3)C(=O)N2[C@H]1C(=O)O [Ampicillin, ampicillin, reference compound]	4 (≈ 11.4 µM)	16 (≈ 45.8 µM)	32 (≈ 91.6 µM)	> 64	–	2 (≈ 5.72 µM)	8 (≈ 22.9 µM)	–	–	–	–	–	–	–	–	–	–	–	–	–
MSWLNFLKYIAKYGKKAVSAAWKYKGKVLEWLNVGPTLEWVWQKLKKIAGL-NH2 [L-AucA, L-aureocin A53 (Met^1-Leu^51)]	–	–	–	–	–	–	–	–	–	–	16	4	4	4	4	4	4	4	2	2
MAGFLKVVQLLAKYGSKAVQWAWANKGKILDWLNAGQAIDLVVSKIKQILGIK-NH2 (C-terminus assumed) [L-W41L, L-lacticin Q W41L (Met^1-Lys^53)]	–	–	–	–	–	–	–	–	–	–	> 64	> 64	> 64	> 64	64	> 64	–	–	–	8
